Active and inactive are the calls of the source. The calls are words filed in the database; no cut-off is given here.
Key:
Quadruplex DNA [1] = test: Stabilization of Parallel c-Myc G4-quadruplex DNA (5'-TGAGGGTGGGTAGGGTGGGTAA-3') (unknown origin) assessed as change in melting temperature at 5 equiv. by CD melting based analysis; type: nucleic-acid assay
HCT-116 = test: Antiproliferative activity against human HCT-116 cells assessed as decrease in cell survival incubated for 48 hrs by MTT assay; type: functional, cell-based; conditions: HCT-116, 48 h
A-375 = test: Antiproliferative activity against human A-375 cells assessed as decrease in cell survival incubated for 48 hrs by MTT assay; type: functional, cell-based; conditions: A-375, 48 h
Quadruplex DNA [2] = test: Stabilization of Hybrid Bcl2 G4-quadruplex DNA (5'-AGGGCGCGGGAGGAAGGGGGCGGGA-3') (unknown origin) assessed as change in melting temperature at 5 equiv. by CD melting based analysis; type: nucleic-acid assay
[3] = Metal chelating activity assessed as free Fe2+ chelation by measuring decrease in cellular LIP content at IC50 measured after 48 hrs by red fluorescent probe based fluorescence microscopy
Hairpin duplex DNA = test: Stabilization of Hairpin duplex DNA (5'-CGCGAATTCGCGTTTCGCGAATTCGCG-3') (unknown origin) assessed as change in melting temperature at 5 equiv. by CD melting based analysis; type: nucleic-acid assay
Quadruplex DNA [4] = test: Stabilization of Parallel c-Kit1 G4-quadruplex DNA (5'-AGGGAGGGCGCTGGGAGGAGGG-3') (unknown origin) assessed as change in melting temperature at 5 equiv. by CD melting based analysis; type: nucleic-acid assay
[5] = Cytotoxicity against human HaCaT cells assessed as decrease in cell survival incubated for 48 hrs by MTT assay; type: toxicity, cell-based
Quadruplex DNA [6] = test: Stabilization of human Hybrid Tel23 G4-quadruplex DNA (5'-TAGGGTTAGGGTTAGGGTTAGGG-3') assessed as change in melting temperature at 5 equiv. by CD melting based analysis; type: nucleic-acid assay
Jurkat [7] = test: Antiproliferative activity human Jurkat cells assessed as reduction in cell number incubated for 48 hrs by phase contrast light microscopy; type: functional, cell-based; conditions: dose 10-100 µM
Quadruplex DNA [8] = test: Stabilization of Parallel c-Kit2 G4-quadruplex DNA (5'-CGGGCGGGCGCTAGGGAGGGT-3') (unknown origin) assessed as change in melting temperature at 5 equiv. by CD melting based analysis; type: nucleic-acid assay
MCF7 = test: Antiproliferative activity against human MCF7 cells assessed as decrease in cell survival incubated for 48 hrs by MTT assay; type: functional, cell-based; conditions: MCF7, 48 h
Jurkat [9] = test: Antiproliferative activity against human Jurkat cells assessed as decrease in cell survival incubated for 48 hrs by MTT assay; type: functional, cell-based
[10] = Metal chelating activity assessed as affinity to Fe3+ at compound:iron concentration ratio of 3:1 and measured at pH 7.4

| Compound | ΔTm (Quadruplex DNA [1]) [°C] | IC50 (HCT-116) [µM] | IC50 (A-375) [µM] | ΔTm (Quadruplex DNA [2]) [°C] | Activity [3] | ΔTm (Hairpin duplex DNA) [°C] | ΔTm (Quadruplex DNA [4]) [°C] | IC50 at 48 h [5] [µM] | ΔTm (Quadruplex DNA [6]) [°C] | Activity (Jurkat [7]) | ΔTm (Quadruplex DNA [8]) [°C] | IC50 (MCF7) [µM] | IC50 (Jurkat [9]) [µM] | pFe3+ [10] |
| --- | --- | --- | --- | --- | --- | --- | --- | --- | --- | --- | --- | --- | --- | --- |
| CN(C)CCCNC(=O)c1ccc2[nH]c(=O)c3cc(=O)c(OCc4ccccc4)cn3c2c1 | 12 | > 200 | > 200 | 15.6 | inactive | 1.5 | 9.6 | > 200 | 5.1 | Dose-dependent-effect | 27.6 | > 200 | 55 |  |
| Cc1c(O)c(=O)ccn1C |  |  |  |  |  |  |  |  |  |  |  |  |  | 20 |
| O=C(O)c1ccc2[nH]c(=O)c3cc(=O)c(OCc4ccccc4)cn3c2c1 | 0.5 |  |  | 1.4 |  | 1 | -0.1 |  | 1 |  | 3.3 |  |  |  |
| O=C(NCc1ccccc1)c1ccc2[nH]c(=O)c3cc(=O)c(OCc4ccccc4)cn3c2c1 | 3.7 |  |  | 3.6 |  | 0.3 | 0.1 |  | 1.2 |  | 7.5 |  |  |  |
| N=C(N)NCCCNC(=O)c1ccc2[nH]c(=O)c3cc(=O)c(O)cn3c2c1 | 3.6 |  |  | 8.5 |  | 0.5 | 3.2 |  | 2.8 |  | 8.6 |  |  |  |
